In a melting point compilation (Tetko et al.; mined from patent text by program, amines drawn as free bases though some values may be those of a salt):

Compound | melting point
CC1(C)CCC(=O)Nc2ccc([N+](=O)[O-])cc21 | 208 °C
Cc1cc(C)c2cccc(OCc3c(Cl)ccc(S(=O)(=O)N4CCC[C@H]4C(=O)NCCCNC(=O)c4cccc(C=NN)c4)c3Cl)c2n1 | 116 to 120 °C
CS(=O)(=O)c1ccc(-n2nc(C(F)(F)F)cc2-c2ccc(-c3nccs3)cc2)cc1 | 206 to 207 °C
CC(CCCCCCCCCC(=O)O)CC(=O)O (stereo not given) | 68.5 to 69.5 °C
N#Cc1ccc(C(=O)NNc2ccc(NC(=S)Nc3ccccc3)cc2)cc1 | 184 to 185 °C
CON(C)C(=O)CC1CN=C(c2cc3cccc(N(C)S(=O)(=O)c4cccs4)c3[nH]2)S1 (stereo not given) | 153 to 154 °C
COc1ncnc(-c2cc(NS(C)(=O)=O)c(C#N)cc2F)c1C | 218 to 220 °C
O=c1[nH]c2cc(OCCN3CCC(Cc4ccccc4)CC3)ccc2o1 | 176 to 177 °C
COc1cc2c(cc1OC)C1=C(C#N)SC(C)C(=O)N1CC2 (stereo not given) | 170 to 171 °C
CC1(C)CC(=O)c2c(C3CC3)sc(C#N)c2C1 | 80 to 83 °C
Cc1nc2n(c(=O)c1CCO)CCCN2Cc1ccccc1 | 150 °C
COc1ccccc1-c1nc2cc(C)ccc2c(=O)[nH]1 | 165 to 170 °C
O=C(Cc1ccc(-c2cccc(F)c2)cc1)Nc1n[nH]c2c1CCC2 | 180 to 181 °C
COC(=O)[C@@H]1Cc2ccccc2N1C(=O)[C@H](CC(=O)OCc1ccccc1)NC(=O)C(F)(F)F | 88 to 90 °C
CC(=O)NC[C@H]1CN(c2ccc(C(=O)c3ccc[nH]3)cc2)C(=O)O1 | 202 to 205 °C
CC(C)(O)c1cccc(-c2ccc3nc(-c4ccc5cc[nH]c5c4)cn3c2)c1 | 203 to 204 °C
CC(C)(C)OC(=O)N1CCC=C(c2ccnc(C(=O)N(O)Cc3ccccc3)c2)C1 | 128 to 134 °C
CCCC(NS(=O)(=O)c1ccc(Cl)cc1)C(=O)NNC(=S)NC (stereo not given) | 191 to 195 °C
Oc1ccc(Cc2cnc3c(-c4cc(-c5ccccc5)cs4)cnn3c2O)cc1 | 287 to 293 °C
O=c1oc(-c2ccc(Sc3ccccc3)cc2)nc2sccc12 | 203 to 204 °C
COC(=O)c1cc2ccc(C(=O)OC(C)(C)C)cc2[nH]1 | 189 to 190 °C
NSc1ccc([N+](=O)[O-])cc1C(Cl)(Cl)Cl | 105 °C
COc1ccc(C2CCc3cc(OC)ccc3C2C#N)cc1 (stereo not given) | 92 °C
COc1ccc(S(=O)(=O)C(C)(CC2CCCCC2)C(=O)NO)cc1 (stereo not given) | 58 °C
O=C(NN=Cc1ccnc2ccccc12)c1ccc(C(F)(F)F)cc1 | 240 °C

Compound | melting point
CC(C)=CC(=O)OC(COc1ccc(C(=O)c2ccccc2)c(O)c1)COc1ccc(C(=O)c2ccccc2)c(O)c1 | 148 to 150 °C
Clc1ccc(C=Cc2nc[nH]n2)cc1 | 178 to 182 °C
Cc1cn2c(n1)-c1ccccc1Nc1ccccc1-2 | 232 to 236 °C
CCCCCCCCCCCCCCCCSCC(CN)n1nnc(C)n1 (stereo not given) | 82 to 83 °C
COc1cnc(CCCOc2cccc(CN3CCCC3)c2)[nH]c1=O | 92 to 95 °C
COc1ccc(C(=O)Nc2ccc3sc(C)nc3c2Cl)cc1 | 182 °C
O=C(Nc1ccc2c(c1)CCOC2)OCc1ccccc1 | 142 to 145 °C
CCCCc1nc(C(C)(C)O)c(C(N)=O)n1Cc1ccc(-c2ccccc2C(=O)O)cc1 | 130 to 138 °C
Nc1nc2cccnc2c2c1nc(O)n2CC1CCOCC1 | 250 to 260 °C
CC(CS)C(=O)Nc1cccc(C(=O)O)n1 (stereo not given) | 178 to 179 °C
O=C(Cc1cccs1)c1c(O)c2cccnc2n(-c2ccccc2)c1=O | 197 to 199 °C
O=C(C1=Cc2ccccc2Oc2ccccc21)N1CCCCC1 | 127 to 128 °C
CC#CN(NC(=O)c1ccc(Cl)c(S(N)(=O)=O)c1)c1ccccc1 | 168 to 170 °C
FC(F)c1nc2ccccc2n1-c1nc(Nc2ccccn2)nc(N2CCOCC2)n1 | 230 to 232 °C
COc1ccc(C2=NN(C(c3ccccc3)c3ccccc3)C(=O)[C@H]3CCCC[C@@H]23)cc1OC (relative stereo) | 133 to 135 °C
O=c1c(CCCc2cnccn2)cc2cccnc2n1-c1cccc([N+](=O)[O-])c1 | 194 to 195 °C
O=[N+]([O-])c1c(NCC23CCCN2CCC3)ccc2ccccc12 | 86 to 87 °C
Cc1c(C)c2c(c(C)c1NC(=O)CCCOCc1ccccc1)C(c1ccc(C(C)C)cc1)CO2 (stereo not given) | 85 to 86 °C
CCOC(=O)CCCOc1ccc(-c2ccc(OCC)cc2)cc1C=O | 69 to 70 °C
O=C(O)COc1c(I)cc(C(=O)c2c(Cc3ccccc3)oc3ccccc23)cc1I | 144 to 146 °C
C=CCc1c(O)c(Cl)c(Cl)c2c1CC(C)(c1ccccc1)C2=O (stereo not given) | 125 °C
CCCc1c(OCCCOc2ccc3ccccc3c2)ccc2c1OC(CCC(=O)O)(CCC(=O)O)CC2=O | 158 °C
C=C(F)C(=O)Oc1c(Cl)c(Cl)c(Cl)c(Cl)c1Cl | 90 to 92 °C
Cc1ccc(C(=O)Nc2ccc(CN3CCN(C)CC3)cc2)cc1Nc1nccc(-c2cccnc2)n1 | 153 to 155 °C
CCCCCc1cnc(-c2ccc(-c3ccc(Br)cc3)cc2)nc1 | 137 °C
